US7812032B2 (Abbott Laboratories, priority 2006, dated 2010)
Read-outs that look alike come from different tables or passages of the source. One block for each compound: values may come before it.

Tests used:
[1] = loading and release of ABT-578 from 15 mm BiodivYsio drug delivery stents; assay type: physicochemical; conditions: 15 mm BiodivYsio stents, 0.01 M phosphate buffer pH 6.0
Experimental: Twelve individual polymer-coated stents were placed on fixtures designed to hold the stent in a vertical position and the stents were immersed vertically in the drug solution for five minutes. The stents and fixtures were removed from the vials and excess drug solution was blotted away by contacting the stents with an absorbant material. The stents were then allowed to dry in air for 30 minutes in an inverted vertical position.
The stents were removed from the fixtures, and each stent was placed into 50/50 acetonitrile/phosphate buffer (pH 5.1, 2.0 ml) and sonicated for one hour. The stents were removed from the solution and solutions were assayed for concentration of drug, which allowed calculation of the amount of drug originally on the stents. This method was independently shown to remove at least 95% of the drug from the stent coating. On average, the stents contained 60 micrograms of drug ±20 micrograms.
The drug-loaded stents were placed on the fixtures and placed into 0.01 M phosphate buffer (pH=6.0, 1.9 ml) in individual vials. These samples were placed onto an Eberbach shaker set at low speed to provide back-and-forth agitation. To avoid approaching drug saturation in the buffer, the stents were transferred periodically to fresh buffer vials at the following points: 15, 30, 45, 60, 120, 135, 150, 165, 180, 240, 390 minutes. The dissolution buffer vials were assayed by HPLC for the drug concentration at the end of the drug release period studied. The data, represented as % cumulative release of the drug as a function of time, is shown in tabular form below: […]

[2] = system: in-stent neointima formation in coronary arteries of adult miniature swine; assay: safety and efficacy of ABT-578 dosages on in-stent neointima formation, BiodivYsio OC stent in swine; assay type: in vivo, Yucatan miniature swine
Experimental: The purpose of this example was to evaluate the safety and efficacy of different drug dosages on neointima formation. […] In-stent neointima formation was measured at […] time intervals; 3 days, 1 month, and 3 months in the coronary arteries of adult miniature swine. Forty (40) animals were studied at each time interval (10 animals per dose). Each animal received one drug-coated stent and one control stent. The control stent contained no drug.
Potential local tissue toxicity was assessed at all time intervals by examining histopathologic changes in the stented region, adjacent coronary segments, perivascular tissue, and subserved myocardium. The mortality, angiographic implant and restudy data, histomorphometry data, and stent site histopathology were studied.

[3] = pharmacokinetics after single intravenous dose in cynomolgus monkey; assay type: in vivo; conditions: for terminal elimination half-life (t1/2) compared to rapamycin: 2.5 mg/kg intravenous; for t1/2: in vivo, iv, 2.5 mg/kg
[4] = rate of release of A-179578 from 316L stainless steel coupons coated with PC polymer; assay type: physicochemical; conditions: PC polymer coated 316L coupons, 0.01 M phosphate buffer pH 6.0
Description: Rubber septa from lids from HPLC vials were removed from the vials and placed into glass vials so that the “Teflon” side faced up. These septa served as supports for the test samples. The test samples were 316L stainless steel coupons that had been previously coated with a biocompatible polymer containing phosphorylcholine side groups (PC polymer). Coronary stents are commonly made of 316L stainless steel and can be coated with the PC polymer to provide a depot site for loading drugs. The coated coupons, which serve to simulate stents, were placed onto the septa. By using a glass Hamilton Syringe, a solution of A-179578 and ethanol (10 μl) was applied to the surface of each coupon. The solution contained A-179578 (30.6 mg) dissolved in 100% ethanol (3.0 ml). The syringe was cleaned with ethanol between each application. The cap to the glass vial was placed on the vial loosely, thereby assuring proper ventilation. The coupon was allowed to dry for a minimum of 1.5 hours. Twelve (12) coupons were loaded in this way, six being used to determine the average amount of drug loaded onto the device and six being used to measure the time needed to release the drug from the devices.
The coupon was placed onto a 5210 Branson sonicator for one hour. The coupon was then removed from the solution, and the solution was assayed by HPLC.
The time release studies were performed by immersing and removing the individual coupons from fresh aliquots (10.0 ml) of 0.01 M phosphate buffer at a pH of 6.0 at each of the following time intervals; 5, 15, 30 and 60 minutes. For the remaining time points of 120, 180, 240, 300, 360 minutes, volumes of 5.0 ml of buffer were used. To facilitate mixing during the drug release phase, the samples were placed onto a Eberbach shaker set at low speed. All solution aliquots were assayed by HPLC after the testing of the last sample was completed.
The HPLC analysis was performed with a Hewlett Packard series 1100 instrument having the following settings: Injection Volume is 100 μl; Acquisition Time is 40 minutes; Flow Rate is 1.0 ml/min; Column Temperature is 40 degrees Celsius; Wavelength is 278 nm; Mobile Phase is 65% Acetonitrile/35% H2O; and Column is YMC ODS-A S5 μm, 4.6×250 mm (Part No. A12052546WT).

[5] = system: neointimal hyperplasia in porcine coronary arteries containing stents; assay: porcine coronary stent model, A-179578 eluted from BiodivYsio PC coronary stent, 28 days; assay type: in vivo
Description: The control stents are polymer-coated without drugs. This is important, for the polymer itself must not stimulate neointimal hyperplasia to a substantial degree. As the eluted drug disappears, an inflammatory response to the polymer could conceivably result in a late “catch-up phenomenon” where the restenosis process is not stopped, but instead slowed. This phenomenon would result in restenosis at late dates in human subjects.
Stents were implanted in two blood vessels in each pig. Pigs used in this model were generally 2-4 months old and weighed 30-40 kg. Two coronary stents were thus implanted in each pig by visually assessing a “normal” stent:artery ratio of 1.1-1.2.
Beginning on the day of the procedure, pigs were given oral aspirin (325 mg daily) and continued for the remainder of their course. General anesthesia was achieved by means of intramuscular injection followed by intravenous ketamine (30 mg/kg) and xylazine (3 mg/kg). Additional medication at the time of induction included atropine (1 mg) and flocillin (1 g) administered intramuscularly. During the stenting procedure, an intraarterial bolus of 10,000 units of heparin was administered.
Arterial access was obtained by cutdown on the right external carotid and placement of an 8F sheath. After the procedure, the animals were maintained on a normal diet without cholesterol or other special supplementation.
The BiodivYsio stent was used with nominal vessel target size of 3.0 mm. Two coronary arteries per pig were assigned at random to deployment of the stents. The stent was either a drug eluting stent (polymer plus drug stent) or a stent coated with a polymer only (polymer only stent). The stents were delivered by means of standard guide catheters and wires. The stent balloons were inflated to appropriate sizes for less than 30 seconds.
Each pig had one polymer only stent and one polymer plus drug stent placed in separate coronary arteries, so that each pig would have one stent for drug and one for control. A sample size of 20 pigs total was chosen to detect a projected difference in neointimal thickness of 0.2 mm with a standard deviation of 0.15 mm, at a power of 0.95 and […] 0.02.
Animals were euthanized at 28 days for histopathologic examination and quantification. Following removal of the heart from the perfusion pump system, the left atrial appendage was removed for access to the proximal coronary arteries. Coronary arterial segments with injuries were dissected free of the epicardium. Segments containing lesions were isolated, thereby allowing sufficient tissue to contain uninvolved blood vessel at either end. […]
The severity of vessel injury and the neointimal response were measured by calibrated digital microscopy. […]

[6] = system: human mixed lymphocyte reaction (MLR); assay: human mixed lymphocyte reaction (MLR) assay; assay type: cell-based; conditions: read-out: Human MLR IC50 ± S.E.M.
[7] = one month, dose groups 3 and 4 vs control
[8] = porcine coronary artery, 28 days

Compound: CO[C@H]1C[C@@H]2CC[C@@H](C)[C@@](O)(O2)C(=O)C(=O)N2CCCC[C@H]2C(=O)O[C@H]([C@H](C)C[C@@H]2CC[C@H](n3cnnn3)[C@H](OC)C2)CC(=O)[C@H](C)/C=C(\C)[C@@H](O)[C@@H](OC)C(=O)[C@H](C)C[C@H](C)/C=C/C=C/C=C/1C [Example 1C, 42-(1-tetrazolyl)-rapamycin]
% Cumulative Release of Drug ([1]; 15 min): 0.3% | % Cumulative Release of Drug ([1]; 30 min): 1.1% | % Cumulative Release of Drug ([1]; 45 min): 2.1% | % Cumulative Release of Drug ([1]; 60 min): 3.2% | % Cumulative Release of Drug ([1]; 120 min): 4.3% | % Cumulative Release of Drug ([1]; 135 min): 5.9% | % Cumulative Release of Drug ([1]; 150 min): 6.3% | % Cumulative Release of Drug ([1]; 165 min): 6.8% | % Cumulative Release of Drug ([1]; 180 min): 7.4% | % Cumulative Release of Drug ([1]; 240 min): 10.8% | % Cumulative Release of Drug ([1]; 390 min): 13.2% | local coronary arterial wall toxicity (medial necrosis or stent malapposition) ([2]; any dose group incl. approximately 27 μg/mm, any time interval): no local coronary arterial wall toxicity | histologic % stenosis ([2]; one month, dose group 3 vs control): tendency towards decreased | Intima area normalized to injury score ([2]; one month, dose groups 3 and 4 (10 and 27 μg/mm) vs control): significantly decreased | absolute intima area [2, 7]: trends for decreases | intima thickness [2, 7]: trends for decreases | vessel wall toxicity ([2]; one month, even at the highest dose (27 μg/mm)): no evidence of vessel wall toxicity | neointima formation in stented coronary arteries ([2]; one-month group, locally eluted): significant inhibitory effect | endothelial recovery over the stent struts ([2]; three days after implant, regardless of dosage): did not appear retarded | neointima cross-sectional area and % area stenosis of the lumen ([2]; three-month period): weak trends for decreases | histomorphometric parameters of stented coronary arterial dimension ([2]; three-month period, between the dose groups): no significant differences | terminal elimination half-life (t1/2) compared to rapamycin [3]: substantially shorter

Compound: COC1CC2CCC(C)C(O)(O2)C(=O)C(=O)N2CCCCC2C(=O)OC(C(C)CC2CCC(n3cnnn3)C(OC)C2)CC(=O)C(C)C=C(C)C(O)C(OC)C(=O)C(C)CC(C)C=CC=CC=C1C (centres unmarked) [Example 1C, 42-(1-tetrazolyl)-rapamycin]
Percent Release ([4]; 0.00 min): 0.00 | Percent Release ([4]; 5.00 min): 1.87 | Percent Release ([4]; 15.00 min): 2.97 | Percent Release ([4]; 30.00 min): 3.24 | Percent Release ([4]; 60.00 min): 3.29 | Percent Release ([4]; 180.00 min): 4.36 | Percent Release ([4]; 240.00 min): 4.37 | Percent Release ([4]; 300.00 min): 6.34 | Percent Release ([4]; 360.00 min): 7.88 | lumen area vs polymer only stent [5, 8]: greater lumen area | neointimal area vs polymer only stent [5, 8]: lower neointimal area | neointimal thickness vs polymer only stent [5, 8]: lower neointimal thickness | neointimal hyperplasia ([5]; stent with polymer placed in porcine coronary artery): reduction in neointimal hyperplasia

IC50 [6]: 12400 ± 5300 pM | t1/2 [3]: 2.8 h
Compound: 40-epi-N-[2′-pyridone]-rapamycin [Example 2-pyridone, reference compound]

terminal elimination half-life (t1/2) compared to rapamycin [3]: substantially shorter
Compound: CO[C@H]1C[C@@H]2CC[C@@H](C)[C@@](O)(O2)C(=O)C(=O)N2CCCC[C@H]2C(=O)O[C@H]([C@H](C)C[C@@H]2CC[C@H](n3ncnn3)[C@H](OC)C2)CC(=O)[C@H](C)/C=C(\C)[C@@H](O)[C@@H](OC)C(=O)[C@H](C)C[C@H](C)/C=C/C=C/C=C/1C [Example 1B, 42-(2-tetrazolyl)-rapamycin]

IC50 ([6]; Homo sapiens, Lymphocyte): 910 ± 360 pM
Compound: CO[C@H]1C[C@@H]2CC[C@@H](C)[C@@](O)(O2)C(=O)C(=O)N2CCCC[C@H]2C(=O)O[C@H]([C@H](C)C[C@@H]2CC[C@@H](O)[C@H](OC)C2)CC(=O)[C@H](C)/C=C(\C)[C@@H](O)[C@@H](OC)C(=O)[C@H](C)C[C@H](C)/C=C/C=C/C=C/1C [Rapamycin]

IC50 [6]: 430 ± 200 pM | t1/2 [3]: 13.3 h
Compound: COC1CC2CCC(C)C(O)(O2)C(=O)C(=O)N2CCCCC2C(=O)OC(C(C)CC2CCC(n3ccc(=O)cc3)C(OC)C2)CC(=O)C(C)C=C(C)C(O)C(OC)C(=O)C(C)CC(C)C=CC=CC=C1C (stereo not drawn) [Example 4-pyridone, 40-epi-N-[4′-pyridone]-rapamycin, reference compound]
